Our source for the EC50 values is PubChem BioAssay AID489027 (Sanford-Burnham Center for Chemical Genomics, 2010).

The source made the active and inactive calls. The rule behind the calls is not given here.

The target in the test is UPR counterscreen luciferase reporter, luminescence. Put plainly: activators in UPR counterscreen luciferase reporter, dose response, counter-screen for adaptive UPR activator project, cell-based, luminescence (AID 489027). Background: Counterscreens check selectivity or assay interference.
Regarding `CN(C)CC(CCC(CN(C)C)C(O)(c1ccccc1)c1ccccc1)C(O)(c1ccccc1)c1ccccc1` (stereo unspecified), the EC50 (as a rule, the concentration at which the effect is half-maximal) is 6.06 µM.
With `CCc1sc2nc(SCC(=O)Nc3cc(C)on3)n(-c3cccc(OC)c3)c(=O)c2c1C` the figure was 15.6 µM; with `Cn1c2ccccc2c2cc(/C=N/NC(=O)c3cc(O)ccc3O)ccc21`, 4.02 µM.
To `O=c1cc2oc3cc(O)c(O)cc3c(-c3ccccc3[N+](=O)[O-])c-2cc1O` belongs > 80 µM (inactive).
On to `CN(/N=C\c1ccc(O)c(O)c1)c1nc(-c2ccccc2)cc(-c2ccccc2)n1`, for which the EC50 is 7.52 µM.
`Brc1ccc(-c2ccc(/C=N/Nc3nncc(-c4ccccc4)n3)o2)cc1`: the EC50 was 17.4 µM.
With `CCCCCCCCCCOC(=O)Cn1c(COc2ccc(Cl)cc2)[n+](C)c2ccccc21`, the EC50 was > 80 µM (inactive).
As for `CC(=O)c1cccc(N=Cc2c(O)c3ccccc3oc2=O)c1`, the EC50 is 7.69 µM.
With `Cc1ccc2nc(N(CCCN(C)C)C(=O)c3ccc(S(=O)(=O)N4CCc5ccccc5C4)cc3)sc2c1`, the EC50 was 10.9 µM.
As to `C#CCn1c(=NC(=O)c2ccc(S(=O)(=O)N3CCc4ccccc4C3)cc2)sc2cc(S(N)(=O)=O)ccc21`, the EC50 is > 80 µM (inactive).
As for `CC1(C)C[C@H](O)[C@]2(CO)[C@H](O)C[C@]3(C)C(=CCC4[C@@]5(C)CC[C@H](O)C(C)(C)C5CC[C@]43C)[C@@H]2C1` (stereo partly specified), the EC50 is > 80 µM (inactive).
With `Nc1nc(SCc2ccc(Cl)cc2Cl)nc2nc3c(cc12)CCCC3`, the EC50 was > 80 µM (inactive).
On to `Cn1nnnc1Sc1ncnc2scc(-c3ccc(Br)cc3)c12`, for which the concentration for a half-maximal effect (EC50) was 17.1 µM.
Regarding `COc1cc(-c2noc(C)c2/C=C/c2ccc(OC(C)=O)cc2)cc(OC)c1OC`, the EC50 is > 80 µM (inactive).
Turning to `CC1CN(S(=O)(=O)c2ccc(C(=O)Nc3nc(-c4cc5ccccc5o4)cs3)cc2)CC(C)O1` (stereo unspecified), the concentration for a half-maximal effect (EC50) is 13.2 µM.
With `Cc1ccc(C2=Nc3ccc(Br)cc3C(c3ccncc3)=NN2)cc1` the entry was “inactive”.
Take `COC(=O)c1c(NC(=O)c2nc3ccccc3s2)sc2c1CC(C)(C)NC2(C)C`: the EC50 was > 80 µM (inactive).
In the case of `COc1ccc2c(c1)[nH]c1c(=O)n(/N=C/C3C(C)C=C(C)CC3C)c(=O)[nH]c12` (stereo unspecified), the EC50 entry is “inactive”.
For the compound `Cc1ccc(C(C)C)c(OCc2ccc(C(=O)N/N=C/c3ccc(O)c(O)c3)cc2)c1`, the EC50 was 4.95 µM.
`COc1ccc(C(=O)/C=C/c2cccs2)c(OC(=O)c2cccc([N+](=O)[O-])c2)c1`: the EC50 result is “inactive”.
Take `Cc1ccc(/C=C/C(=O)c2cc(Br)ccc2OC(=O)c2ccco2)cc1`: the EC50 entry was “inactive”.
Regarding `COc1ccc(/C=N/Nc2cc(C)nc3ccc(Br)cc23)cc1`, the EC50 is 9.88 µM.
`CCOC(=O)C1=C(C)N=c2s/c(=C3/C(=O)Nc4ccccc43)c(=O)n2C1c1ccc(C)cc1` (stereo unspecified): the EC50 was > 80 µM (inactive).
For the compound `COc1ccc(/C=N/NC(=O)c2cccc([N+](=O)[O-])c2)c2ccccc12`, the EC50 result is “inactive”.
With `O=C1Nc2ccccc2/C1=C/c1ccc([N+](=O)[O-])cc1`, the EC50 entry is “inactive”.
For `CCOc1ccc(/C=C/C(O)=C2/C(=O)NC3(C)CC2c2ccccc2O3)cc1OC` (stereo unspecified), the EC50 result is “inactive”.
With `CN(C)CCCN(C(=O)c1ccc(S(=O)(=O)N2CCCCCC2)cc1)c1nc2ccc(Br)cc2s1` the figure was 12.7 µM; with `Cc1cc(C)nc(SCc2ccc(C(=O)N/N=C/c3cccc(O)c3O)cc2)n1`, 6.43 µM.
With `Cc1cc(NC(=O)c2cc(-c3ccncc3)nc3c(C)cccc23)no1`, the EC50 was 16 µM.
On to `O=C(/C=C/c1ccccc1)c1ccccc1O`, for which the 50% effective concentration (EC50) is 13.2 µM.
Regarding `COc1ccc2c(c1)NC(c1cc(Cl)cc(Cl)c1O)c1cccn1-2` (stereo unspecified), the EC50 entry is “inactive”.
`COc1ccc(-c2cc(C(F)F)n3ncc(C(=O)N4CCc5ccccc5C4)c3n2)cc1`: the EC50 entry was “inactive”.
To `Cc1ccc(NC(=O)c2nc[nH]c2C(=O)NCCCNC(=O)c2[nH]cnc2C(=O)Nc2ccc(C)cc2)cc1` belongs > 80 µM (inactive).
Take `COc1ccc(OC)c(-c2nnc3n2N=C(c2ccc(OC)c(OC)c2)CS3)c1`: the EC50 is > 80 µM (inactive).
Turning to `O=C(Nc1ccc([N+](=O)[O-])cc1)C(Cc1ccccc1)N1C(=O)c2cccc3cccc(c23)C1=O` (stereo unspecified), the EC50 result was “inactive”.
With `C/C(=N\Nc1ncnc2sc(C)c(C)c12)c1ccccn1` the figure was 2.6 µM.
As to `C[C@H]1[C@H](C)CC[C@]2(C(=O)O)CC[C@]3(C)C(=CC[C@@H]4[C@@]5(C)C[C@@H](O)[C@H](O)C(C)(C)[C@@H]5CC[C@]43C)[C@H]12`, the EC50 was > 80 µM (inactive).
Turning to `Cc1cccc(NC(=O)c2nc[nH]c2C(=O)Nc2ccccc2[N+](=O)[O-])c1`, the EC50 was > 80 µM (inactive).
Consider `O=[N+]([O-])c1cccc(/C=C/c2ccc3cccc(O)c3n2)c1`, for which the EC50 is > 80 µM (inactive).
As for `CCOc1cc(/C=N/NC(=O)Cn2nc([N+](=O)[O-])cc2C)cc(Br)c1OCc1ccccc1C`, the EC50 is > 80 µM (inactive).
With `COc1cc(/C=C2\CC(C(C)(C)C)C/C(=C\c3cc(OC)c(OC)c(OC)c3)C2=O)cc(OC)c1OC` (stereo unspecified), the EC50 is 4 µM.
Turning to `COc1ccc(Cc2nnc(N/N=C/c3ccc(N(C)C)cc3)[nH]c2=O)cc1OC`, the EC50 was > 80 µM (inactive).
Consider `CCOC(=O)c1cc(NC(=O)c2ccc(Cl)cc2)c(=O)n2c1oc1ccc(Cl)cc12`, for which the EC50 was > 80 µM (inactive).
To `Cc1ccc2c(c1)C(=O)C(=O)N2Cc1ccc(Br)cc1` belongs “inactive”; to `Cc1cccc2c1Sc1ccc(Cl)cc1CC2N1CCNCC1` (stereo unspecified), > 80 µM (inactive).
In the case of `Cn1nc(C(F)(F)F)c(/C=N/OC(=O)c2ccccc2Cl)c1SCc1ccccc1Cl`, the EC50 entry was “inactive”.
With `Cc1ccc(Cn2c(SCC(=O)Nc3cc(C)on3)nc3ccccc3c2=O)cc1`, the EC50 was > 80 µM (inactive).
On to `COc1ccc(N2CCN(Cc3nc(N)nc(Nc4ccc(C)c(Cl)c4)n3)CC2)cc1`, for which the EC50 was > 80 µM (inactive).
In the case of `COc1ccc(-n2c(C)cc(C(=O)CCl)c2C)cc1`, the concentration for a half-maximal effect (EC50) is 5.8 µM.
Turning to `Oc1ccc(-c2nc3ccc4ccccc4c3c3c2CCC3)cc1O`, the EC50 was 18 µM.
For the compound `CCN=C1S/C(=C\c2cn(CC(=O)NCc3ccco3)c3ccccc23)C(=O)N1CC`, the EC50 was > 80 µM (inactive).
Consider `COc1ccc(OC)c(NC(=O)c2oc3ccccc3c2NC(=O)C2CC2)c1`, for which the EC50 was > 80 µM (inactive).
Turning to `CCOc1cc(/C=N\Nc2ccc([N+](=O)[O-])cc2)ccc1OCC(=O)Nc1ccc(C)c(C)c1`, the EC50 is > 80 µM (inactive).
For `Nc1cccc(-c2nc3cc(S(=O)(=O)c4ccc5oc(-c6cccc(N)c6)nc5c4)ccc3o2)c1`, the EC50 is > 80 µM (inactive).
Consider `CCC(C)(C)C1CCC2(CC1)NC(=O)N(CC(=O)N1CCN(S(=O)(=O)c3cc(C)ccc3C)CC1)C2=O` (stereo unspecified), for which the EC50 is 19.3 µM.
To `Cc1ccc(N2CCN(c3ccc(NCc4nc5ccccc5n4C)cc3)CC2)cc1` belongs “inactive”; to `CCOC(=O)c1nn(-c2ccc(OCC)cc2)c2nc(-c3ccco3)c(C#N)c(=O)n12`, “inactive”.
As to `Cc1cc(NC(=O)c2cc(-c3ccccn3)nc3ccc(Br)cc23)no1`, the EC50 is > 80 µM (inactive).
Consider `Cc1ccc(Nc2nc(NCc3ccco3)c3ccccc3n2)cc1`, for which the EC50 is > 80 µM (inactive).
In the case of `Cc1cnc(NC(=O)c2cc(S(=O)(=O)N(C)C)ccc2N2CCCC2)s1`, the EC50 is 4.67 µM.
With `COC(=O)C1C(O)=C(C=Nc2cccc3ccccc23)C(=O)CC1(C)C` (stereo unspecified) the figure was 1.41 µM; with `COc1ccc(-c2c/c(=N\c3nc(-c4ccccc4)c(C)s3)c3ccccc3o2)cc1O`, “inactive”.
`Cc1ccc2c(c1)C(c1ccc([N+](=O)[O-])cc1)=NNC(c1ccc(Br)cc1)=N2`: the EC50 is > 80 µM (inactive).
With `C=CCOc1ccc(/C=N/N2C(=O)C(CC(=O)Nc3ccc(F)cc3F)SC2=NC)cc1` (stereo unspecified) the figure was > 80 µM (inactive); with `c1ccc(N=Nc2ccc3cccccc2-3)cc1`, 11 µM; with `CCN(CC)c1ccc(C(=O)OCC(=O)Nc2cc3oc4ccccc4c3cc2OC)cc1`, 20 µM.
On to `CN(C)CCCNC(=O)c1ccc(-c2nc(-c3ccc(Cl)cc3)cs2)cc1`, for which the concentration for a half-maximal effect (EC50) is 9.53 µM.
On to `COCc1cc(C)nc(OCC(=O)N/N=C/c2ccc(-c3cc([N+](=O)[O-])ccc3Cl)o2)c1C#N`, for which the EC50 is 13.6 µM.
For `COc1ccc2cc1Oc1ccc(cc1)CC1c3c(cc(OC)c4c3Oc3cc5c(cc3O4)CCNC5C2)CCN1C` (stereo unspecified), the EC50 is > 80 µM (inactive).
Turning to `O=C(Nc1ccc([N+](=O)[O-])cc1)c1nc[nH]c1C(=O)NC1CCCCC1`, the EC50 was > 80 µM (inactive).
In the case of `COc1ccccc1CCNC(=O)C1CCN(c2nnc(C)c3c(C)n(-c4ccc(C)cc4)nc23)CC1`, the EC50 is 18.1 µM.
With `Cc1ccc(NC(=O)c2cc(S(=O)(=O)N(C)C)ccc2N2CCCC2)cc1S(=O)(=O)N(C)C`, the EC50 was 19 µM.
Take `Brc1cc2c(cc1/C=N/Nc1nc3ccccc3s1)OCO2`: the EC50 was > 80 µM (inactive).
For the compound `C#CCn1c(=NC(=O)c2ccc(Br)s2)sc2cccc(OC)c21`, the EC50 is > 80 µM (inactive).
For the compound `CC(C)=CCCC1(C)C=Cc2c(c(C)cc3c2[nH]c2cc(O)ccc23)O1` (stereo unspecified), the EC50 entry was “inactive”.
Take `C#CCOCCOCCOCCNc1nc(N2CCN(C(=O)CCCCCCCCCCNC(=O)[C@H](CCCCN)n3cc(C[C@@H](C)CC)nn3)CC2)nc(N2CCN(C(=O)CCCCCCCCCCNC(=O)[C@H](CCCN=C(N)N)n3cc(C[C@@H](C)CC)nn3)CC2)n1`: the EC50 is > 80 µM (inactive).
`CCOc1ccc(S(=O)(=O)Nc2cccc(C(=O)NCC3(N4CCCCC4)CCCCC3)c2)cc1`: the EC50 entry was “inactive”.
In the case of `CCOc1cc(/C=N/N=C(/N)c2nonc2N)cc(Br)c1OCc1ccc(Cl)cc1`, the EC50 is > 80 µM (inactive).
In the case of `Nc1nc(Nc2ccccc2)nc(NC2CCCCC2)c1[N+](=O)[O-]`, the EC50 result is “inactive”.
On to `CN(C)CCCN(C(=O)c1ccc(S(=O)(=O)N2CCc3ccccc3C2)cc1)c1nc2ccc(F)cc2s1`, for which the EC50 was 8.2 µM.
Regarding `COc1cc([C@@H]2c3cc4c(cc3[C@@H](O)[C@H]3COC(=O)[C@H]23)OCO4)cc(OC)c1O[Si](C)(C)C(C)(C)C`, the EC50 was 14.6 µM.
